{"source": "paper PMC5618426", "about": "“APETx4, a Novel Sea Anemone Toxin and a Modulator of the Cancer-Relevant Potassium Channel KV10.1” (Marine Drugs, 2017)", "key": {"NIH-3T3": {"tested_on": "NIH-3T3", "assay": "proliferation (IncuCyte confluency)", "format": "cell-based, mouse", "conditions": "cell confluency (%) over time, n = 4 wells", "procedure": "(§1) The cell proliferation was quantified in terms of cell confluency (%) over time; data points were collected every hour. […] LNCaP, it is presumed that the observed effect cannot only be attributed to KV10.1 inhibition (Figure S5).\n(§2) Cell lines SH-SY5Y (ACC 209), LNCaP (ACC 256) and NIH-3T3 (ACC 59) were purchased from DSMZ (Germany). MDA-MB-435S (HTB 129) and hTERT RPE-1 (CRL 4000) were obtained from ATCC (USA). Cell lines were cultured in their recommended media supplemented with 10% or 15% FCS (PAA laboratories, Cölbe, Germany) at 37 °C in humidified 5% CO2 atmosphere. All media were purchased from ThermoFisher Scientific (Waltham, MA, USA).\n(§3) Cell proliferation, cytotoxicity and apoptosis were assessed in a 96-well microtiter plate by live-cell imaging using an IncuCyte Zoom System (Essen BioScience, Welwyn Garden City, UK). Cell proliferation was monitored in terms of cell confluency (%). Cell cytotoxicity was assessed by the CellTox Green Dye assay (Promega, Madison, WI, USA). The IncuCyte Caspase-3/7 apoptosis assay (Essen BioScience, UK) was used to evaluate the effect of APETx4 on the apoptotic pathway.\nLive-cell imaging data were collected from the IncuCyte Zoom software and analyzed using GraphPad Prism 6 software. Proliferation was measured as Phase Object Confluence (%), cytotoxicity and apoptosis were measured as Green Object Count (1/mm²). Data points were collected every hour. […]"}, "LNCaP": {"tested_on": "LNCaP", "assay": "proliferation (IncuCyte confluency)", "format": "cell-based, human", "conditions": "cell confluency (%) over time, n = 4 wells", "procedure": "as §1, §2, §3\n(§4) Live-cell imaging data were collected from the IncuCyte Zoom software and analyzed using GraphPad Prism 6 software. Proliferation was measured as Phase Object Confluence (%), cytotoxicity and apoptosis were measured as Green Object Count (1/mm²). Data points were collected every hour. In order to improve the clarity of the graphs, only the data points for every 5 h are shown. All data are represented as mean ± S.E.M of n = 4 different wells."}, "MDA-MB-435S [1]": {"tested_on": "MDA-MB-435S", "assay": "proliferation (IncuCyte confluency)", "format": "cell-based, human", "conditions": "cell confluency (%) over time, n = 4 wells", "procedure": "as §1, §2, §3, §4"}, "hTERT RPE-1": {"tested_on": "hTERT RPE-1", "assay": "proliferation (IncuCyte confluency)", "format": "cell-based, human", "conditions": "cell confluency (%) over time, n = 4 wells", "procedure": "as §1, §2, §3, §4"}, "SH-SY5Y": {"tested_on": "SH-SY5Y", "assay": "proliferation (IncuCyte confluency)", "format": "cell-based, human", "conditions": "cell confluency (%) over time, n = 4 wells", "procedure": "as §1, §2, §3, §4"}, "MDA-MB-435S [2]": {"tested_on": "MDA-MB-435S", "format": "cell-based, human", "excerpt": "The proapoptotic activity of APETx4 was visualized and quantified by the addition of the IncuCyte Caspase-3/7 Reagent. This reagent is an inert and non-fluorescent substrate, which is cleaved by activated caspase-3/7 during early apoptosis. The cleavage of the reagent releases a DNA-binding green fluorescent dye. […] In Figure 7 an overview is given for the caspase assays of all the tested cell lines.\nFigure 7 Investigation of the proapoptotic effect of APETx4 on various cell lines using a Caspase-3/7 Reagent. The amount of cells in early apoptosis was plotted as Green Object Count (1/mm²) versus time (hours). The data points represented as red triangles were obtained from apoptosis experiments with cells incubated without APETx4, the green squares represent experiments with 20 µM APETx4 and the blue circles were obtained from experiments with 50 µM APETx4.\nas §2, §3, §4"}, "hKV11.1 (hERG)": {"tested_on": "hKV11.1 (hERG)", "format": "cell-based, human", "procedure": "For the expression of the ion channels (rNaV1.4, hNaV1.5, mNaV1.6, hKV1.1, rKV1.3, hKV1.4, hKV1.5, hKV2.1, hKV10.1a and hKV11.1,) in Xenopus oocytes, the plasmids were linearized and subsequently transcribed using the T7 or SP6 mMESSAGE-mMACHINE transcription kit (Ambion®, Carlsbad, CA, USA).\nStage V-VI Xenopus laevis oocytes were isolated by partial ovariectomy. The animals were anesthetized by a 15 min submersion in 0.1% tricaine methane sulfonate (pH 7.0). Isolated oocytes were defolliculated with 2 mg/mL collagenase.\nDefolliculated oocytes were injected with 50 nL of cRNA at a concentration of 1 ng/nL using a micro-injector (Drummond Scientific®, Broomall, PA, USA). The oocytes were incubated in a solution containing (in mM): NaCl, 96; KCl, 2; CaCl2, 1.8; MgCl2, 2 and HEPES, 5 (pH 7.4), supplemented with 50 mg/L gentamycin sulfate.\nTwo-electrode voltage-clamp recordings were performed at room temperature (18–22 °C) using an Geneclamp 500B Voltage and Patch Clamp Amplifier (Axon Instruments, Union City, CA, USA, controlled by a Axon Digidata 1550 Low-Noise Data Acquisition System (Axon Instruments). Whole cell currents from oocytes were recorded 1–4 days after injection. The normal bath solution (ND96) composition was (in mM): NaCl, 96; KCl, 2; CaCl2, 1.8; MgCl2, 2 and HEPES, 5 (pH 7.4). The high potassium solution (HK) composition was in mM): NaCl, 2; KCl, 96; CaCl2, 1.8; MgCl2, 2 and HEPES, 5 (pH 7.4). Voltage and current electrodes were filled with 3 M KCl. Resistances of both electrodes were kept between 0.5 and 1.5 MΩ. The elicited KV1.x end KV2.1 currents were filtered at 500 Hz and sampled at 2 kHz, KV10.1 currents were filtered at 1 kHz and sampled at 2 kHz, hERG currents were filtered at 1 kHz and sampled at 10 kHz and the sodium currents were filtered at 2 kHz and sampled at 20 kHz using a four-pole low-pass Bessel filter. Leak subtraction was performed using a -P/4 protocol.\nKV10.1 currents were evoked by 2 s depolarizing pulses to 0 mV from a holding potential of −90 mV. KV11.1 (hERG) peak and tail currents were generated by a 2.5 s prepulse from −90 mV to 40 mV followed by a 2.5 s pulse to −120 mV. […]\nThe peak and tail current of hERG were measured at different voltages by 1500 ms activating pulses from −60 mV to 55 mV in 5 mV steps from the holding potential of −90 mV, followed by a 750 ms step to −120 mV.\nAll electrophysiological data are presented as means ± S.E.M of n ≥ 3 independent experiments unless otherwise indicated. All data were acquired using pClamp Clampex 10.4 Molecular Devices, Downingtown, PA, USA) and analyzed using pClamp Clampfit 10.4 (Molecular Devices) and OriginPro 8 (Originlab, Northampton, MA, USA) or GraphPad Prism 6 software (GraphPad Software, Inc., San Diego, CA, USA). […]"}}, "note": "“Also recorded” adds a separate entry of the source. Positions of bridges follow the written chain, without caps; N, C: chain ends. No end group written: not given here.", "data": [{"sequence": "GTTCYCGKTIGIYWFGKYSCPTNRGYTGSCPYFLGICCYPVD (disulfide 4-37, 6-30, 20-38) [APETx4]", "values": [{"measurement": "antiproliferative effect", "setting": "NIH-3T3", "value": "without affecting the proliferation of healthy fibroblast cells"}, {"measurement": "antiproliferative effect", "setting": "LNCaP", "value": "concentration-dependent antiproliferative effect"}, {"measurement": "antiproliferative effect", "setting": "MDA-MB-435S [1]", "value": "concentration-dependent antiproliferative effect"}, {"measurement": "antiproliferative effect", "setting": "hTERT RPE-1", "value": "concentration-dependent antiproliferative effect"}, {"measurement": "antiproliferative effect", "setting": "SH-SY5Y", "value": "concentration-dependent antiproliferative effect"}, {"measurement": "viability in cell images", "setting": "MDA-MB-435S [2]; 50 µM APETx4, 0 h, 24 h and 48 h", "value": "immediate effects were not clearly observed"}, {"measurement": "time course of green fluorescent cells (early apoptosis)", "setting": "MDA-MB-435S [2]; green object count (1/mm²) versus incubation time", "value": "gradual increase in green fluorescent cells"}, {"measurement": "hERG tail current at positive activation steps (≥0 mV)", "setting": "hKV11.1 (hERG); 10 µM APETx4", "value": "tail current increased"}, {"measurement": "highest inhibition of hERG inward tail current", "setting": "hKV11.1 (hERG); 10 µM APETx4, activating step to −20 mV", "value": "21 ± 5", "unit": "%"}, {"measurement": "shift of hERG activation curve towards more positive potentials", "setting": "hKV11.1 (hERG); 10 µM APETx4, inward tail currents, Boltzmann fit, n = 3, p < 0.05", "value": "7.7 ± 0.4", "unit": "mV"}, {"measurement": "selectivity KV10.1 versus hERG", "setting": "hKV11.1 (hERG); low micromolar concentrations", "value": "discriminates between KV10.1 and hERG; also recorded: makes a clear distinction between KV10.1 and hERG"}]}]}
